Data as given in article PMC5007443, “TNIK inhibition abrogates colorectal cancer stemness” (Nature Communications, 2016).
pIC50: −log10 of the molar value.

How the values were obtained:
CSK = CSK (Homo sapiens, UniProt P41240); test: Kinase selectivity profiling, c-Src tyrosine kinase; assay type: biochemical; settings: read-out: Percentage inhibition of CSK
Method: (§1) The selectivity of compounds against a panel of 50 human protein kinases was assessed using a non-radiometric assay.

IGF1R = IGF1R (Homo sapiens, UniProt P08069); test: Kinase selectivity profiling, Insulin-like growth factor 1 receptor; assay type: biochemical; settings: read-out: Percentage inhibition of IGF1R
Method: as §1

ITK = ITK (Homo sapiens, UniProt Q08881); test: Kinase selectivity profiling, IL2-inducible T-cell kinase; assay type: biochemical; settings: read-out: Percentage inhibition of ITK
Method: as §1

PDGFRα = PDGFRα (Homo sapiens, UniProt P16234); test: Kinase selectivity profiling, Platelet-derived growth factor receptor α; assay type: biochemical; settings: 0.1 µM inhibitor, ATP at Km; for inhibition at 0.1 µM: read-out: Percentage inhibition of PDGFRα
Method: as §1

SRC = SRC (Homo sapiens, UniProt P12931); test: Kinase selectivity profiling, v-Src sarcoma viral oncogene homolog; assay type: biochemical; settings: read-out: Percentage inhibition of SRC
Method: as §1

TIE2 = TIE2 (Homo sapiens, UniProt Q02763); test: Kinase selectivity profiling, TEK tyrosine kinase; assay type: biochemical; settings: read-out: Percentage inhibition of TIE2
Method: as §1

TRKA = TRKA (Homo sapiens, UniProt P04629); test: Kinase selectivity profiling, Tropomyosin receptor kinase A; assay type: biochemical; settings: 0.1 µM inhibitor, ATP at Km; for inhibition at 0.1 µM: read-out: Percentage inhibition of TRKA
Method: as §1

AKT1 = AKT1 (Homo sapiens, UniProt P31749); test: Kinase selectivity profiling, v-Akt murine thymoma viral oncogene homolog 1; assay type: biochemical; settings: read-out: Percentage inhibition of AKT1
Method: as §1

AMPKα1/β1/γ1 = AMPKα1/β1/γ1 (Homo sapiens, UniProt Q13131); test: Kinase selectivity profiling, AMP-activated protein kinase; assay type: biochemical; settings: read-out: Percentage inhibition of AMPKα1/β1/γ1
Method: as §1

CaMK4 = CaMK4 (Homo sapiens, UniProt Q16566); test: Kinase selectivity profiling, Calcium/calmodulin-dependent protein kinase IV; assay type: biochemical; settings: read-out: Percentage inhibition of CaMK4
Method: as §1

CK1ε = CK1ε (Homo sapiens, UniProt P49674); test: Kinase selectivity profiling, Casein kinase 1ε; assay type: biochemical; settings: read-out: Percentage inhibition of CK1ε
Method: as §1

DAPK1 = DAPK1 (Homo sapiens, UniProt P53355); test: Kinase selectivity profiling, Death-associated protein kinase 1; assay type: biochemical; settings: read-out: Percentage inhibition of DAPK1
Method: as §1

DYRK1B = DYRK1B (Homo sapiens, UniProt Q9Y463); test: Kinase selectivity profiling, Dual-specificity tyrosine-phosphorylation regulated kinase 1B; assay type: biochemical; settings: read-out: Percentage inhibition of DYRK1B
Method: as §1

GSK3β = GSK3β (Homo sapiens, UniProt P49841); test: Kinase selectivity profiling, Glycogen synthase kinase 3β; assay type: biochemical; settings: read-out: Percentage inhibition of GSK3β
Method: as §1

HGK = HGK (Homo sapiens, UniProt O95819); test: Kinase selectivity profiling, Hematopoietic progenitor kinase; assay type: biochemical; settings: 0.1 µM inhibitor, ATP at Km; for inhibition at 0.1 µM: read-out: Percentage inhibition of HGK
Method: as §1

JNK2 = JNK2 (Homo sapiens, UniProt P45984); test: Kinase selectivity profiling, c-Jun kinase 2; assay type: biochemical; settings: read-out: Percentage inhibition of JNK2
Method: as §1

MAPKAPK2 = MAPKAPK2 (Homo sapiens, UniProt P49137); test: Kinase selectivity profiling, Mitogen-activated protein kinase-activated protein kinase 2; assay type: biochemical; settings: read-out: Percentage inhibition of MAPKAPK2
Method: as §1

MST1 = MST1 (Homo sapiens, UniProt Q13043); test: Kinase selectivity profiling; assay type: biochemical; settings: read-out: Percentage inhibition of MST1
Method: as §1

PDK1 = PDK1 (Homo sapiens, UniProt O15530); test: Kinase selectivity profiling; assay type: biochemical; settings: read-out: Percentage inhibition of PDK1
Method: as §1

PKD2 = PKD2 (Homo sapiens, UniProt Q9BZL6); test: Kinase selectivity profiling; assay type: biochemical; settings: read-out: Percentage inhibition of PKD2
Method: as §1

NEK2 = NEK2 (Homo sapiens, UniProt P51955); test: Kinase selectivity profiling, Never in mitosis gene A-related kinase 2; assay type: biochemical; settings: read-out: Percentage inhibition of NEK2
Method: as §1

p70S6K = p70S6K (Homo sapiens, UniProt P23443); test: Kinase selectivity profiling, Ribosomal protein S6 kinase; assay type: biochemical; settings: read-out: Percentage inhibition of p70S6K
Method: as §1

PAK2 = PAK2 (Homo sapiens, UniProt Q13177); test: Kinase selectivity profiling, P21 protein (Cdc42/Rac)-activated kinase 2; assay type: biochemical; settings: read-out: Percentage inhibition of PAK2
Method: as §1

PBK = PBK (Homo sapiens, UniProt Q96KB5); test: Kinase selectivity profiling, PDZ binding kinase; assay type: biochemical; settings: read-out: Percentage inhibition of PBK
Method: as §1

PKACα = PKACα (Homo sapiens, UniProt P17612); test: Kinase selectivity profiling, cAMP-dependent protein kinase, catalytic subunit α; assay type: biochemical; settings: read-out: Percentage inhibition of PKACα
Method: as §1

PKCα = PKCα (Homo sapiens, UniProt P17252); test: Kinase selectivity profiling, Protein kinase C-α; assay type: biochemical; settings: read-out: Percentage inhibition of PKCα
Method: as §1

TSSK1 = TSSK1 (Homo sapiens, UniProt Q9BXA7); test: Kinase selectivity profiling, Testis-specific serine kinase 1; assay type: biochemical; settings: read-out: Percentage inhibition of TSSK1
Method: as §1

HCT116 cells = test: Drug sensitivity assay, ATP production, 2D culture; assay type: cell-based; settings: Homo sapiens, HCT-116; HCT116, 2D culture, 72 h; read-out: IC50, ATP production (cell growth)
Method: Cells were seeded at a density of 3,000 cells per well in 96-well plates. Twenty-four hours after seeding, the cells were exposed to serially diluted compounds (0.003, 0.01, 0.03, 0.1, 0.3, 1, 3 and 10 μM) and incubated for 72 h (Fig. 3a). Patient-derived colorectal cancer spheroids were dissociated into single cells with Accutase (Nacalai Tesque) and seeded at a density of 3,000 cells per well into Ultra-Low attachment multiwall 96-well plates (Corning; Fig. 6d). ATP was measured with a CellTiter-Glo Luminescent Cell Viability Assay kit (Promega). Experiments were performed in triplicate and repeated at least two times.

Sequence of HGK (O95819 whole entry): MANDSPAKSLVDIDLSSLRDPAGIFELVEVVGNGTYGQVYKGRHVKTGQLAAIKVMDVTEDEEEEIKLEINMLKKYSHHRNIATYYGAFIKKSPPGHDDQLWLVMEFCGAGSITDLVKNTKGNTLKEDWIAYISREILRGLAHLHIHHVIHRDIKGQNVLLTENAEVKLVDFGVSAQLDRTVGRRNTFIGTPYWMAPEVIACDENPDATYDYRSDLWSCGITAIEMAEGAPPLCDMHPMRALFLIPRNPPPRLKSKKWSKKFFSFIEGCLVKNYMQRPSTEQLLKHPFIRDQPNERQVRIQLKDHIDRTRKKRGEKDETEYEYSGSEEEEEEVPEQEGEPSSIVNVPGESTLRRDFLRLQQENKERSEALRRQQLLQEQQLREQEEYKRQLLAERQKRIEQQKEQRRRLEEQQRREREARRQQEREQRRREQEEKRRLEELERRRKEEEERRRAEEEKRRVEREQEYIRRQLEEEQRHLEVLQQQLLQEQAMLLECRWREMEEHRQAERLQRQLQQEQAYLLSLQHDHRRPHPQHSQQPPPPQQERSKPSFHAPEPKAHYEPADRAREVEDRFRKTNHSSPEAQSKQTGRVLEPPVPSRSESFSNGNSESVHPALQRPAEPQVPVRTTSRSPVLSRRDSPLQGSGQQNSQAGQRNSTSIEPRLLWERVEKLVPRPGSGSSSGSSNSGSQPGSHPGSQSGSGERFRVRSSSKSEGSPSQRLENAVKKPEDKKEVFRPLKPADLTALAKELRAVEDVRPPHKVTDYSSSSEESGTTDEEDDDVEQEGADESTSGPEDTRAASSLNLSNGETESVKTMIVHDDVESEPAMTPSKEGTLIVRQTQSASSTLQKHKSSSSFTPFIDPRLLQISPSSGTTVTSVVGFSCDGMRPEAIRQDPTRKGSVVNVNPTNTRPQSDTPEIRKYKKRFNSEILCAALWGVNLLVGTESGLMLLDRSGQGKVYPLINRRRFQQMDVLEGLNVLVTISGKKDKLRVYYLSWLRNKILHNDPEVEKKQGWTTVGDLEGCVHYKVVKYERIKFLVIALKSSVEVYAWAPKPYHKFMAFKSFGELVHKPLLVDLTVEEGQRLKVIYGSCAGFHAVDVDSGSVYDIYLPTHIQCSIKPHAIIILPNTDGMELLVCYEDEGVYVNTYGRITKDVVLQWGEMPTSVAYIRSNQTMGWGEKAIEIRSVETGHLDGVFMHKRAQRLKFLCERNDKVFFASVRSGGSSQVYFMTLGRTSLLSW
Sequence of TRKA (P04629 33-796): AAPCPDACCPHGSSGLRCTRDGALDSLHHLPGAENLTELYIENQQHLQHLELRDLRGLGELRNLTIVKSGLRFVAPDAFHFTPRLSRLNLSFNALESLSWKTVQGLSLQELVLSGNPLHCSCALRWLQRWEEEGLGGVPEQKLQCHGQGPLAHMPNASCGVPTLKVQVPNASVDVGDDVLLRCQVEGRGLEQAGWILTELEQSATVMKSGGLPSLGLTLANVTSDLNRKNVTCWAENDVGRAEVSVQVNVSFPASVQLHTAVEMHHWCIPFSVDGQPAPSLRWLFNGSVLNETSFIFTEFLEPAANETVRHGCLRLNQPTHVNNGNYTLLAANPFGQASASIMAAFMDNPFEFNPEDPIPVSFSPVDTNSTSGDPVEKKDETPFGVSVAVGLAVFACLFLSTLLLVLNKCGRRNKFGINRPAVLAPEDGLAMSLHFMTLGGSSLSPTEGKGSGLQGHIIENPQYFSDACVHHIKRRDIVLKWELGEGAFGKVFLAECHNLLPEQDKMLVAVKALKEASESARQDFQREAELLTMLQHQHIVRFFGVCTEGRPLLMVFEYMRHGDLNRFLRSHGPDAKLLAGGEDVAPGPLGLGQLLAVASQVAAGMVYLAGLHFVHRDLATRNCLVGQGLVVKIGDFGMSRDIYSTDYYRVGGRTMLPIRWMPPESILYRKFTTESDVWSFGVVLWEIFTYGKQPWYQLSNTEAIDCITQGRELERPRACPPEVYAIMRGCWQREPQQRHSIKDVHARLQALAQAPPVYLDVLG
Sequence of PDGFRα (P16234 24-1089): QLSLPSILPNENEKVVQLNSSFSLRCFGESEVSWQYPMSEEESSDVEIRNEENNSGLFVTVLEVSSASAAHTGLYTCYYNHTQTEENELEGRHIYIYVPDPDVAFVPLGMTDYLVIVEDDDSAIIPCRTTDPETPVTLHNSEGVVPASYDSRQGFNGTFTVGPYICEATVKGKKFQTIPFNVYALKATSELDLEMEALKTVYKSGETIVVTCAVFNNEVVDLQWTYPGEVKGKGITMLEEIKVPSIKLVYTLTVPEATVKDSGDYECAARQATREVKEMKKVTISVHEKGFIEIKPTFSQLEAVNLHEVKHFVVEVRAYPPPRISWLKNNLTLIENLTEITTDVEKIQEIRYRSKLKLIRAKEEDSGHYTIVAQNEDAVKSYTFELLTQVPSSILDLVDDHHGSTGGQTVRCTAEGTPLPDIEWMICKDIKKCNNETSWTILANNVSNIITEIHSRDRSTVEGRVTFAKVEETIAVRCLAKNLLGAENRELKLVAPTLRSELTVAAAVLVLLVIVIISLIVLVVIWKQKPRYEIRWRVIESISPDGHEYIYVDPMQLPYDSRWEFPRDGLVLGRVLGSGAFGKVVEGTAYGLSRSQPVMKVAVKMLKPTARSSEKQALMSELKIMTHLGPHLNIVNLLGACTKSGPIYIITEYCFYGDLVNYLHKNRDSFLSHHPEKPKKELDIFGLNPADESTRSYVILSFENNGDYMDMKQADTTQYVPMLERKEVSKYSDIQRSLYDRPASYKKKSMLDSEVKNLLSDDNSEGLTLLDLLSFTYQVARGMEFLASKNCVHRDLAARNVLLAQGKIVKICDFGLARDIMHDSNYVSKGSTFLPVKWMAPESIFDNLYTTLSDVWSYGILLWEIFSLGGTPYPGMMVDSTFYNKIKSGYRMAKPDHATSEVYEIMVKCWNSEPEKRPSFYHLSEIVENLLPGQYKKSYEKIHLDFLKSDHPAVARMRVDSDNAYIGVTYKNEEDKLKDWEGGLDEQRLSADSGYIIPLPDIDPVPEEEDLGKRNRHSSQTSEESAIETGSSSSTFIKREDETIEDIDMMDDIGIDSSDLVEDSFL
Sequence of DYRK1B (Q9Y463 whole entry): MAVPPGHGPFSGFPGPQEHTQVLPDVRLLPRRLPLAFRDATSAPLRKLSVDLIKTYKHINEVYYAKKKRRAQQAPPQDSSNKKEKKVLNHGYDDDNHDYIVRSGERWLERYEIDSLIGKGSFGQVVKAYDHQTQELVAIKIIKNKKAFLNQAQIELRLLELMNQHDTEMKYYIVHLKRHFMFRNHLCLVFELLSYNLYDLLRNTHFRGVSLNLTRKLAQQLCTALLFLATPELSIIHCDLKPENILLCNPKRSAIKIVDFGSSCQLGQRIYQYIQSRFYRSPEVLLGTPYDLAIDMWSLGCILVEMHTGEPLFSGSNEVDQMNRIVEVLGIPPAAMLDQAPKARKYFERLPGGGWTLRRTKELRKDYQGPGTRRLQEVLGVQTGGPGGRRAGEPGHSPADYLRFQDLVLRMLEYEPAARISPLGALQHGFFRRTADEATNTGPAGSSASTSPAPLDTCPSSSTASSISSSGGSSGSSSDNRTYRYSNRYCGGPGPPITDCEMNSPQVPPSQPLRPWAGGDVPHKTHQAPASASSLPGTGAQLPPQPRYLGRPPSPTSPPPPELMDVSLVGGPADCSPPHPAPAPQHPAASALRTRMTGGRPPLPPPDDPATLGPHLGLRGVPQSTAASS
Sequence of PDK1 (O15530 whole entry): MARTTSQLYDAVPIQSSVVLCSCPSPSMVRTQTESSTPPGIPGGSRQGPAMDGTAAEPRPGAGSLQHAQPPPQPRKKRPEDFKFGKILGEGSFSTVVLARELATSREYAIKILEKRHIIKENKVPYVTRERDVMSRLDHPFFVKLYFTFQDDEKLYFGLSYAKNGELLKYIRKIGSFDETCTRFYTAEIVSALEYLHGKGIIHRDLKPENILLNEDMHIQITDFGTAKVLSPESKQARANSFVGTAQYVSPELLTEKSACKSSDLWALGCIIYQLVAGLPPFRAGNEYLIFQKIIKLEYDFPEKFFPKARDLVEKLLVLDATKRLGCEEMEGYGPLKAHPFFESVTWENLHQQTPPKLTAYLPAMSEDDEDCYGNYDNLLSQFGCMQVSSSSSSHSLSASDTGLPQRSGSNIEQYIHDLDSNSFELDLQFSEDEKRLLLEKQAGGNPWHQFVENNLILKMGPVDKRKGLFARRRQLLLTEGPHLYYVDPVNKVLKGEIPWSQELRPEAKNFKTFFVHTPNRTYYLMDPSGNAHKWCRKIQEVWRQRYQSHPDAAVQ

| SMILES | inhibition at 0.1 µM (CSK) [%] | inhibition at 0.1 µM (IGF1R) [%] | inhibition at 0.1 µM (ITK) [%] | inhibition at 0.1 µM (PDGFRα) [%] | inhibition at 0.1 µM (SRC) [%] | inhibition at 0.1 µM (TIE2) [%] | inhibition at 0.1 µM (TRKA) [%] | inhibition at 0.1 µM (AKT1) [%] | inhibition at 0.1 µM (AMPKα1/β1/γ1) [%] | inhibition at 0.1 µM (CaMK4) [%] | inhibition at 0.1 µM (CK1ε) [%] | inhibition at 0.1 µM (DAPK1) [%] | inhibition at 0.1 µM (DYRK1B) [%] | inhibition at 0.1 µM (GSK3β) [%] | inhibition at 0.1 µM (HGK) [%] | inhibition at 0.1 µM (JNK2) [%] | inhibition at 0.1 µM (MAPKAPK2) [%] | inhibition at 0.1 µM (MST1) [%] | inhibition at 0.1 µM (PDK1) [%] | inhibition at 0.1 µM (PKD2) [%] | also measured |
| --- | --- | --- | --- | --- | --- | --- | --- | --- | --- | --- | --- | --- | --- | --- | --- | --- | --- | --- | --- | --- | --- |
| O[C@H]1CC[C@@H](Oc2cccc3cnc(Nc4ccc5nc[nH]c5c4)nc23)CC1 [NCB-0846, cis-4-(2-(3H-benzo[d]imidazol-5-ylamino)quinazolin-8-yloxy)cyclohexanol] | -1 | 10.7 | 10 | > 80 | 19 | 4.9 | > 80 | -3.4 | 31.5 | -1.5 | -2.8 | 3.7 | 8.9 | 27.7 | > 80 | 0.3 | -5.8 | 57.8 | 2.4 | 18.8 | Percentage inhibition of PDGFRα (PDGFRα; 0.1 µM): 89.0%; Percentage inhibition of TRKA (TRKA; 0.1 µM): 89.1%; Percentage inhibition of HGK (HGK; 0.1 µM): 80.5%; inhibition at 0.1 µM (NEK2): -3.5%; inhibition at 0.1 µM (p70S6K): 11%; inhibition at 0.1 µM (PAK2): -7.8%; inhibition at 0.1 µM (PBK): -3.9%; inhibition at 0.1 µM (PKACα): 0.9%; inhibition at 0.1 µM (PKCα): -0.9%; inhibition at 0.1 µM (TSSK1): 5.8%; pIC50 (HCT116 cells): 6.44 |
| O[C@H]1CC[C@H](Oc2cccc3cnc(Nc4ccc5nc[nH]c5c4)nc23)CC1 [NCB-0970] | -4 | 1.2 | 9 | 45.6 | 14.4 | -2.8 | 81.6 | -4.4 | 9.3 | -4.1 | -1.6 | 4.7 | -2.4 | 13.5 | 21.8 | -3 | -9.3 | 14.3 | -0.8 | 1 | inhibition at 0.1 µM (NEK2): -4.5%; inhibition at 0.1 µM (p70S6K): 11.4%; inhibition at 0.1 µM (PAK2): -17.4%; inhibition at 0.1 µM (PBK): -5.8%; inhibition at 0.1 µM (PKACα): -4.4%; inhibition at 0.1 µM (PKCα): 1.4%; inhibition at 0.1 µM (TSSK1): 1.1%; pIC50 (HCT116 cells): 5.62 |
